This is an account of results in publication PMC4407688 (Drug metabolism and drug interactions, 2014).

Read-outs that look alike come from different tables or passages of the source.

The target in data set [1] is T1, OATP-1B1 (Homo sapiens, UniProt Q9Y6L6).
T1 sequence (Q9Y6L6 1-691): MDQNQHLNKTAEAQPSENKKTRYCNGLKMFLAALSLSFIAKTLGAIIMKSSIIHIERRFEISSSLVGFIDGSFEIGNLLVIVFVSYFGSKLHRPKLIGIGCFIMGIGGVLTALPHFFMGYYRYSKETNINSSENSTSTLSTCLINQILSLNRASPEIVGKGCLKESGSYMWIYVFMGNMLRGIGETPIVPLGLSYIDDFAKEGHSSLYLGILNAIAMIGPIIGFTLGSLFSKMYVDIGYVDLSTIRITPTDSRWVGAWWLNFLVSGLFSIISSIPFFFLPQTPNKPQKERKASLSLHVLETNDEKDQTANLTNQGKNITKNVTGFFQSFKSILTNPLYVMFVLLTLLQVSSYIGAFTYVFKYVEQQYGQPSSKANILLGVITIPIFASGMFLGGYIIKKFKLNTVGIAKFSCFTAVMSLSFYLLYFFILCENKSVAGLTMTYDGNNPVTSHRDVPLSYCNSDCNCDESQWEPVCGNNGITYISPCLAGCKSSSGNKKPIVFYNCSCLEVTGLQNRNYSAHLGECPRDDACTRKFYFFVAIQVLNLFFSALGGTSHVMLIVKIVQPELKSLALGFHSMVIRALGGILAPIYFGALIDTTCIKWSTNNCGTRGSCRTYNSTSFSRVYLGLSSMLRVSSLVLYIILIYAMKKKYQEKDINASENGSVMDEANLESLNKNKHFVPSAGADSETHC
To be noted: for Inhibition of cellular accumulation of [3H]ES (in words) / Diminished uptake of [3H]ES: 25 and 50 μM; for Diminished uptake of [3H]ES: p < 0.05.

In data set [2] the test system is OATP-1B3 transfected CHO cells. The data set is classed as cell-based, Chinese hamster.
The next data set deals with T2, OATP-1B3 (Homo sapiens, UniProt Q9NPD5).
T2 sequence (Q9NPD5 1-702): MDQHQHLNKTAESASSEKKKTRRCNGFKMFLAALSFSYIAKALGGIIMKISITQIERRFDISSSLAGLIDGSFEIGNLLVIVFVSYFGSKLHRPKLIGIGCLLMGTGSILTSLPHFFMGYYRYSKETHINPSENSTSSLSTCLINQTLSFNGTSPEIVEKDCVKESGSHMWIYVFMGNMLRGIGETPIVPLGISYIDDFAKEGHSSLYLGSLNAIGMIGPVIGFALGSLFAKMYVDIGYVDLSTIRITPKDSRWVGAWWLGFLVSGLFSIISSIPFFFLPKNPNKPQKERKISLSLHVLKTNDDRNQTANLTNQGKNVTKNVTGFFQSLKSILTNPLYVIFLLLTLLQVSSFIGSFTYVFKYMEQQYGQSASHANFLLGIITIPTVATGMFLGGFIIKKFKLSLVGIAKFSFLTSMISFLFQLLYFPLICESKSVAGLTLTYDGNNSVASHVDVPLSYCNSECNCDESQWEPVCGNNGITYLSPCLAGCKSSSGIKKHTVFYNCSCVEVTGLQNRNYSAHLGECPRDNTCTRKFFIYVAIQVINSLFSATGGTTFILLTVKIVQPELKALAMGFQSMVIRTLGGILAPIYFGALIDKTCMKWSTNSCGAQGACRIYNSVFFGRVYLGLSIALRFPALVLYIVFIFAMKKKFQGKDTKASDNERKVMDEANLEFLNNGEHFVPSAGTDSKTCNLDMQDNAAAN
Description: Inhibition of [3H]CCK-8 cellular accumulation in OATP-1B3 transfected CHO cells. The data set is classed as cell-based. Conditions: for Inhibition of cellular accumulation of [3H]CCK-8 (in words): 25 and 50 μM, OATP-1B3 transfected cells; for Inhibition in net uptake rate of [3H]CCK-8 in OATP-1B3 cells (in words): increasing concentrations 0.1-100 μM.

Data set [3] has as its system OATP-1B1 transfected CHO cells.
Data set [4] concerns OATP-1B1. Conditions: 10 μM, Flp-In T-Rex293 cells expressing OATP-1B1; ref Hu et al. [24]; cited from earlier work.
For data set [5] the following is noted: coadministration of pazopanib; ref Tan et al. [41]; cited from earlier work.
For data set [6] the following is noted: coadministration together with CsA; ref [16], [34], [35]; cited from earlier work.
Where [7] appears, read: 100 μM, 24 h, OATP-1B3 transfected cells, relative to positive control Triton X.
The mark [8] stands for this setting: 100 μM, 24 h, OATP-1B1 transfected cells, relative to positive control Triton X.

As usually defined, the IC50 is the midpoint of a concentration-inhibition curve. Read a low IC50 as greater potency in that assay.

With `Cc1cn(-c2cc(NC(=O)c3ccc(C)c(Nc4nccc(-c5cccnc5)n4)c3)cc(C(F)(F)F)c2)cn1` [Nilotinib, nilotinib], on OATP-1B1 [1] (OATP-1B1 transfected cells), the “Inhibition of cellular accumulation of [3H]ES (in words)” value (“Inhibition … [3H]ES (in words)” for short) was “significant inhibition” and the “Diminished uptake of [3H]ES” value is on record as about 90%. The Cytotoxic effect result in data set [2] (setting [7]) is given as “No cytotoxic effects”. For the same compound, on OATP-1B3, the “Inhibition of cellular accumulation of [3H]CCK-8 (in words)” value (“Inhibition … [3H]CCK-8 (in words)” for short) is listed as “did not show any significant effect” and the “Inhibition in net uptake rate of [3H]CCK-8 in OATP-1B3 cells (in words)” value (“Inhibition in net uptake rate” below) was “no significant inhibition”. Further, in data set [3] (setting [8]), the Cytotoxic effect result was “No cytotoxic effects”. The “Inhibition of OATP-1B1 (in words)” value in the data set on OATP-1B1 [4] is recorded as “inhibitory potency”.

With `Cc1ccc(Nc2nccc(N(C)c3ccc4c(C)n(C)nc4c3)n2)cc1S(N)(=O)=O` [Pazopanib], at OATP-1B1 [1], the IC50 is 3.89 ± 1.21 µM. For the same compound, at OATP-1B1 [1] (OATP-1B1 transfected cells), the “Inhibition … [3H]ES (in words)” value is recorded as “significant inhibition” and the “Diminished uptake of [3H]ES” value is reported as about 90%. Also, the Cytotoxic effect entry in data set [2] is listed as “No cytotoxic effects”. Besides, at OATP-1B3, the “Inhibition … [3H]CCK-8 (in words)” value is given as “did not show any significant effect” and the “Inhibition in net uptake rate” value is recorded as “no significant inhibition”. Besides, the Cytotoxic effect result in data set [3] is “No cytotoxic effects”. Further, the “Inhibition of OATP-1B1 (in words)” value in the data set with OATP-1B1 [4] is listed as “inhibitory potency”.

Take `COc1cc2c(Nc3ccc(Br)cc3F)ncnc2cc1OCC1CCN(C)CC1` [Vandetanib, vandetanib]: the “Inhibition … [3H]ES (in words)” value on OATP-1B1 [1] (OATP-1B1 transfected cells) is “did not show any significant inhibitory activity”. Also, the Cytotoxic effect result in data set [2] and in data set [3] was “No cytotoxic effects” each time. This compound displayed an IC50 against OATP-1B3 of 18.1 ± 1.21 µM. Besides, the “Inhibition … [3H]CCK-8 (in words)” value on OATP-1B3 is listed as “significant inhibition”. The “Inhibition of OATP-1B1 (in words)” value in the data set on OATP-1B1 [4] is on record as “inhibitory activity”.

As for `CC(=O)O[C@H]1C(=O)[C@@]2(C)[C@H]([C@H](OC(=O)c3ccccc3)[C@]3(O)C[C@H](OC(=O)[C@H](O)[C@@H](NC(=O)c4ccccc4)c4ccccc4)C(C)=C1C3(C)C)[C@]1(OC(C)=O)CO[C@@H]1C[C@@H]2O` [paclitaxel], the Lower paclitaxel clearance in data set [5] was 14%.

As for `CO[C@H]1/C=C/O[C@@]2(C)Oc3c(C)c(O)c4c(O)c(c(/C=N/N5CCN(C)CC5)c(O)c4c3C2=O)NC(=O)/C(C)=C\C=C\[C@H](C)[C@H](O)[C@@H](C)[C@@H](O)[C@@H](C)[C@H](OC(C)=O)[C@@H]1C` [Rifampicin], the IC50 on OATP-1B1 [1] is 10.5 ± 1.15 µM; against OATP-1B3, 3.67 ± 1.2 µM. For the same compound, on OATP-1B1 [1] (50 μM, OATP-1B1 transfected cells), the “Reduced uptake of [3H]ES” value stood at 70%.

As to `CC[C@H](C)C(=O)O[C@H]1C[C@H](O)C=C2C=C[C@H](C)[C@H](CC[C@@H](O)C[C@@H](O)CC(=O)O)[C@H]21` [pravastatin], the “Increased AUC of statin” value in data set [6] is given as 9.93 fold.

`C=CC(=O)Nc1cc2c(Nc3ccc(F)c(Cl)c3)ncnc2cc1OCCCN1CCOCC1` [Canertinib, canertinib]: the “Inhibition … [3H]ES (in words)” value on OATP-1B1 [1] (OATP-1B1 transfected cells) is listed as “did not show any significant inhibitory activity”. Also, the Cytotoxic effect result in data set [2] (setting [7]) and in data set [3] (setting [8]) was “No cytotoxic effects” throughout. Further, at OATP-1B3, the “Inhibition … [3H]CCK-8 (in words)” value was “did not show any significant effect”. Further, at OATP-1B3, the “Inhibition in net uptake rate” value is listed as “no significant inhibition”.

As to `C#Cc1cccc(Nc2ncnc3cc(OCCOC)c(OCCOC)cc23)c1` [Erlotinib, erlotinib], the “Inhibition … [3H]ES (in words)” value on OATP-1B1 [1] (OATP-1B1 transfected cells) is listed as “did not show any significant inhibitory activity”. Also, the Cytotoxic effect result in data set [2] (setting [7]) and in data set [3] (setting [8]) was “No cytotoxic effects” each time. The “Inhibition … [3H]CCK-8 (in words)” value on OATP-1B3 is recorded as “did not show any significant effect”. In addition, the “Inhibition in net uptake rate” value on OATP-1B3 is “no significant inhibition”. The “Inhibition of OATP-1B1 (in words)” value in the data set with OATP-1B1 [4] is recorded as “inhibitory activity”.

With `CC(C)c1nc(N(C)S(C)(=O)=O)nc(-c2ccc(F)cc2)c1/C=C/[C@@H](O)C[C@@H](O)CC(=O)O` [rosuvastatin], the “Increased AUC of statin” value in data set [6] is given as 7.08 fold.
